How the values were obtained:
JAK1 = target: T1, JAK1 (Homo sapiens, UniProt P23458); assay: Biochemical JAK1 kinase assay (LanthaScreen)
T1 construct: GST; purchased Life Technologies
How it was run: (§1)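 GST-tagged JAK enzyme and GFP-STAT1 peptide preincubated with compound 1 h, then ATP added; 1 h kinase reaction at ambient temperature, pH 7.5 HEPES/MgCl2 buffer, 1% DMSO. Tb-anti-pSTAT1 (pTyr701) TR-FRET, 520/495 nm ratio; IC50 from 4-parameter fit, converted to pKi via Cheng-Prusoff.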

[1] = tested on: IL-2 stimulated pSTAT5 in Tall-1 T cells; assay: Cellular JAK3 potency assay: inhibition of IL-2 stimulated pSTAT5 in Tall-1 T cells; format: cell-based, human
How it was run: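 In human Tall-1 T cells, IL-2 (300 ng/ml final, 30 min) drives STAT5 phosphorylation after a 1 h compound pretreatment. Lysates are assayed for pSTAT5 by AlphaLisa, and IC50 derived from signal versus concentration is expressed as pIC50.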

Tyk2 = target: T2, Tyk2 (Homo sapiens, UniProt P29597); assay: Biochemical Tyk2 kinase assay (LanthaScreen)
T2 construct: GST; purchased Life Technologies
How it was run: as §1

JAK3 = target: T3, JAK3 (Homo sapiens, UniProt P52333); assay: Biochemical JAK3 kinase assay (LanthaScreen); parameters: GST; purchased Life Technologies
T3 sequence (P52333 1-1124): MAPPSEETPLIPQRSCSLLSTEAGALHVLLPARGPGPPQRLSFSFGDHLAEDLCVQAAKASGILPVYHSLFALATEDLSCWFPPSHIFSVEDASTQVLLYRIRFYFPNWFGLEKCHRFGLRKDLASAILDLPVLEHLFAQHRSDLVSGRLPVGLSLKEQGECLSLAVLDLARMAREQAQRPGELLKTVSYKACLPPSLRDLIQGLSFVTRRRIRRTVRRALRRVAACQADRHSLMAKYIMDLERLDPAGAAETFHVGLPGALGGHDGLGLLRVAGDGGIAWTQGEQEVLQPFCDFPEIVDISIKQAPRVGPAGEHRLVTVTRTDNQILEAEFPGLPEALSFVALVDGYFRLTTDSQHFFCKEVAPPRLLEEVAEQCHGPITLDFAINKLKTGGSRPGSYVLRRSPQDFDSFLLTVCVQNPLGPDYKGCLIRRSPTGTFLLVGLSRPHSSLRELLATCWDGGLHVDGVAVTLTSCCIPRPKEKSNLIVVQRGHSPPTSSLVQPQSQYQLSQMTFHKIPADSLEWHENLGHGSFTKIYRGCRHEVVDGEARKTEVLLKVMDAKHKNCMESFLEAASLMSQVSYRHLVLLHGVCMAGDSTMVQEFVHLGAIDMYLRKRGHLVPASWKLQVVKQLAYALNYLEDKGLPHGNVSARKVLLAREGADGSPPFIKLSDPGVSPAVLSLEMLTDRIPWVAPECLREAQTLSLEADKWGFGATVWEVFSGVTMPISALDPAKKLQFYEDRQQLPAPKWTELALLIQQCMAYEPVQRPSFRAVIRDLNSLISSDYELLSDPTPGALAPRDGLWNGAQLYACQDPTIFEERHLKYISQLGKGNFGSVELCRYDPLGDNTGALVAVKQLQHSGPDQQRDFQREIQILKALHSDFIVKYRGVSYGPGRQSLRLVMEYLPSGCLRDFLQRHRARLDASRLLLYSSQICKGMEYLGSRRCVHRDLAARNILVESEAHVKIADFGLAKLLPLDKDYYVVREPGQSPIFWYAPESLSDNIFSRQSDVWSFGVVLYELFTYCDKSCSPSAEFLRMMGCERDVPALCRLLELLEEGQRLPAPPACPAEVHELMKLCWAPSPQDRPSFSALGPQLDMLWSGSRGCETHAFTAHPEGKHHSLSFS
How it was run: as §1

JAK2 = target: T4, JAK2 (Homo sapiens, UniProt O60674); assay: Biochemical JAK2 kinase assay (LanthaScreen)
T4 construct: GST; purchased Life Technologies
How it was run: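 GST-tagged recombinant JAK2 pre-incubated 1 h at ambient temperature with compound and GFP-STAT1 peptide in HEPES pH 7.5/MgCl2 buffer, then ATP added for a 1 h reaction with 1% DMSO. TR-FRET read after EDTA and Tb-anti-pSTAT1 (pTyr701) addition; IC50 from 4-parameter fit, converted to pKi by Cheng-Prusoff.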

[2] = IL-2 stimulated pSTAT5 in Tall-1 T cells
[3] = selectivity: difference of pKi JAK3 and pKi JAK1
[4] = IL-2 stimulated pSTAT5, Tall-1 T cells
[5] = selectivity JAK3 over JAK1, difference of pKi

T1 sequence (P23458 whole entry): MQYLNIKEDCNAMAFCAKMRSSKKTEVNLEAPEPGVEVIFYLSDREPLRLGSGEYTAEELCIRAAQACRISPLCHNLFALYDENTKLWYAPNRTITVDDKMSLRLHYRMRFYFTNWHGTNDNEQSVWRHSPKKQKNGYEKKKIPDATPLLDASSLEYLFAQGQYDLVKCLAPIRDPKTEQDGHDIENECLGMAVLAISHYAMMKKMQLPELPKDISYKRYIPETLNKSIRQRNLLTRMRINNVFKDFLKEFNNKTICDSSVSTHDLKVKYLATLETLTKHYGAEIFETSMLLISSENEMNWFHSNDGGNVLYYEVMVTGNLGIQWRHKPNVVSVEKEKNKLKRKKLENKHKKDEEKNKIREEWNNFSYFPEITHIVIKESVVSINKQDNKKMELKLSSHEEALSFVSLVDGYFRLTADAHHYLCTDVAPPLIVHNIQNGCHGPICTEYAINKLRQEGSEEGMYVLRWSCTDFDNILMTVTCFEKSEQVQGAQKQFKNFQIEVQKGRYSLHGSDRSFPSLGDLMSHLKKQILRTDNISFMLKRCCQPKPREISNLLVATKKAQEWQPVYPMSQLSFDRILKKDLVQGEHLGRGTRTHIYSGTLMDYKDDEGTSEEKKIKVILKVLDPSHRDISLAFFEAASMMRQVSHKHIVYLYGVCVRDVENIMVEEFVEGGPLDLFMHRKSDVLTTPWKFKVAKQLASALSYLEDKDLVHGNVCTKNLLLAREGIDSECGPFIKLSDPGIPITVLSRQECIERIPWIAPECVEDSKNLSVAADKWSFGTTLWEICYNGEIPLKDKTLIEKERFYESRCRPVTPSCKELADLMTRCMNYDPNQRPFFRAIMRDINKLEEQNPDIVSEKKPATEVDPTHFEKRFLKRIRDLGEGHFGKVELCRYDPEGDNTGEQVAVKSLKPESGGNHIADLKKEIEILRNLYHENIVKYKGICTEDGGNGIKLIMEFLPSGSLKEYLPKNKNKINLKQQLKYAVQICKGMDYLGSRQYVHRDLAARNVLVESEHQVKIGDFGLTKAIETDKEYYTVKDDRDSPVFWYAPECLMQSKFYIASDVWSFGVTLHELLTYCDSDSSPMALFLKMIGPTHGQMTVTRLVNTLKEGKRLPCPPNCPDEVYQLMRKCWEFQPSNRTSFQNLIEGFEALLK
T4 sequence (O60674 whole entry): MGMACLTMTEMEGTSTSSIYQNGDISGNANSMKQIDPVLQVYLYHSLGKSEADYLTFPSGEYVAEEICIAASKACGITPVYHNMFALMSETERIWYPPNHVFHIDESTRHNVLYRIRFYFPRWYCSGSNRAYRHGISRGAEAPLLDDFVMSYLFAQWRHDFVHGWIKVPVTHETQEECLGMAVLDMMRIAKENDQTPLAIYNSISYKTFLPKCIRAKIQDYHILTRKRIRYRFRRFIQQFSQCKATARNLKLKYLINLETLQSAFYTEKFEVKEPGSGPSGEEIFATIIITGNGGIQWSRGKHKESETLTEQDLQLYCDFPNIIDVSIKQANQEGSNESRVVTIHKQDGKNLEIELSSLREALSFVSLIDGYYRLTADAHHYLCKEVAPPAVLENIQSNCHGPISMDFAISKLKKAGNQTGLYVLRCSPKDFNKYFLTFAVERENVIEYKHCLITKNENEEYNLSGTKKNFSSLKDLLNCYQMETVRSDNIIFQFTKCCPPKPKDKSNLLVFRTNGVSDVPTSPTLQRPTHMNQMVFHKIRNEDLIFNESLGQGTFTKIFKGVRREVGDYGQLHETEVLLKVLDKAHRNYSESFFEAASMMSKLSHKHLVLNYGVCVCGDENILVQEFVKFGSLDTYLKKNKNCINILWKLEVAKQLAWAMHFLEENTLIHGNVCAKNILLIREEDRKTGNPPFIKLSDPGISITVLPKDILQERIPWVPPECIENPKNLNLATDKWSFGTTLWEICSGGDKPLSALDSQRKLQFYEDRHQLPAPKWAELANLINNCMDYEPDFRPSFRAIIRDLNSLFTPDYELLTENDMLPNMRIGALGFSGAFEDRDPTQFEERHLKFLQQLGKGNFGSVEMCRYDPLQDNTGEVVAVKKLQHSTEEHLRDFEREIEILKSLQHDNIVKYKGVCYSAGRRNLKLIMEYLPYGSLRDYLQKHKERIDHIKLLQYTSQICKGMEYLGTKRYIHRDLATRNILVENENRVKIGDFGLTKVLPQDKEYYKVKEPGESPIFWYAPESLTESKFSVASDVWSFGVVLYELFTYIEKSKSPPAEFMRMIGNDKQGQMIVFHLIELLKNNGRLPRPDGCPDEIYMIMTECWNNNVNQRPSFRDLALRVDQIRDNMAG
T2 sequence (P29597 whole entry): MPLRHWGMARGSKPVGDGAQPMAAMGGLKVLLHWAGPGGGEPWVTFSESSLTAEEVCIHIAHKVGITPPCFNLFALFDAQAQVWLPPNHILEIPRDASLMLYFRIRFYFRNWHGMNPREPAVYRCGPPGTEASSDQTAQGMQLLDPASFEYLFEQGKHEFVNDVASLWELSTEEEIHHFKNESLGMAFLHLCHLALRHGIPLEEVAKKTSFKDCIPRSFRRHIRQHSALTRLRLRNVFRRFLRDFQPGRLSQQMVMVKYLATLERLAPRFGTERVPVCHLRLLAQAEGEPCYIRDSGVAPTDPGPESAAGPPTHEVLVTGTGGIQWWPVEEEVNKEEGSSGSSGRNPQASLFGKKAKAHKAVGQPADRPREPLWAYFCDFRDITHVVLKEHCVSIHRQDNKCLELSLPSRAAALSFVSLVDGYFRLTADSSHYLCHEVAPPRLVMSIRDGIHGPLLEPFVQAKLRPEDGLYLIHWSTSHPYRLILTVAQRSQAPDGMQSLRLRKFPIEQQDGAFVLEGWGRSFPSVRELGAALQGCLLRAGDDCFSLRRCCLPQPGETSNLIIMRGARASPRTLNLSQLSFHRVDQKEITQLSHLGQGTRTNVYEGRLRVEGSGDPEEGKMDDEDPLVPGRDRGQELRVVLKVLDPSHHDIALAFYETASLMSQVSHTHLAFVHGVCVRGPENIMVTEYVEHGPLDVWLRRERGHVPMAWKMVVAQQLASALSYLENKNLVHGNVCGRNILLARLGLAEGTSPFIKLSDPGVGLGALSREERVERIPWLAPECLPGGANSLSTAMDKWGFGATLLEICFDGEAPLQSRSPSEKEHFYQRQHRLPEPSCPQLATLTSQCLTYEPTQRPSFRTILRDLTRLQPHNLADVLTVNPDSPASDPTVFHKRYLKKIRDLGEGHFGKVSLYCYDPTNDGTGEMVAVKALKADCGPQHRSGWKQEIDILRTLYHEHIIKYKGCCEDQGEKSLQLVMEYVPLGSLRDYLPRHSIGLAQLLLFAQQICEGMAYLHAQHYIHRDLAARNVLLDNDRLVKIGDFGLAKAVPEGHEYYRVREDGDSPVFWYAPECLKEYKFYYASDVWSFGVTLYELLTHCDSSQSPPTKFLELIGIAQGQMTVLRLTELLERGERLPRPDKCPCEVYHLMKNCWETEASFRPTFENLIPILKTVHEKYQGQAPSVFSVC

SMILES	JAK 1 (pKi) (JAK1)	Tall-1 (pIC50) [1, 2]	Tyk 2 (pKi) (Tyk2)	JAK 3 (pKi) (JAK3)	JAK3 (pKi)-JAK1 (pKi) (JAK3; [3])	JAK 2 (pKi) (JAK2)	Tall-1 (pIC50) [1, 4]	JAK3 (pKi)-JAK1 (pKi) (JAK3; [5])	Ki (JAK1; read-out: JAK 1 (pKi) (converted))	IC50 ([1]; Homo sapiens, TALL-1, IL-2 stimulated pSTAT5, Tall-1 T cells, read-out: Tall-1 (pIC50) (converted))	Ki (Tyk2; read-out: Tyk 2 (pKi) (converted))	Ki (JAK3; read-out: JAK 3 (pKi) (converted))	Ki (JAK2; read-out: JAK 2 (pKi) (converted))
C=CC(=O)N1CC(Oc2cc(-c3ccc(O)c(Cl)c3)cc3[nH]ncc23)C1 [Compound 5-4]	E (a pKi value of 7 or below (Ki of 100 nM or above))	A (a pIC50 value≥7.5 (IC50≤32 nM))	E (a pKi value of 7 or below (Ki of 100 nM or above))	B (a pKi value between 9 and 10 (Ki between 1 nM and 0.1 nM))	A (a value of 3 or above)	E (a pKi value of 7 or below (Ki of 100 nM or above))	–	–	–	–	–	–	–
CN(C)C/C=C/C(=O)N1CC(Oc2cc(-c3ccc(O)c(F)c3)cc3[nH]ncc23)C1 [Compound 5-5]	E (a pKi value of 7 or below (Ki of 100 nM or above))	B (a pIC50 value between 6.7 (included) and 7.5 (IC50 between 200 nM and 32 nM))	E (a pKi value of 7 or below (Ki of 100 nM or above))	A (a pKi value≥10 (Ki≤0.1 nM))	A (a value of 3 or above)	D (a pKi value between 7 and 8 (Ki between 100 nM and 10 nM))	–	–	–	–	–	–	–
C=CC(=O)N1CC(Oc2cc(-c3ccc(O)c(F)c3)cc3[nH]ncc23)C1 [Compound 5-6]	E (a pKi value of 7 or below (Ki of 100 nM or above))	B (a pIC50 value between 6.7 (included) and 7.5 (IC50 between 200 nM and 32 nM))	E (a pKi value of 7 or below (Ki of 100 nM or above))	B (a pKi value between 9 and 10 (Ki between 1 nM and 0.1 nM))	A (a value of 3 or above)	E (a pKi value of 7 or below (Ki of 100 nM or above))	–	–	–	–	–	–	–
C=CC(=O)N1CC(Nc2cc(-c3ccc(O)cc3)cc3[nH]ncc23)C1 [Compound 5-7]	E (a pKi value of 7 or below (Ki of 100 nM or above))	B (a pIC50 value between 6.7 (included) and 7.5 (IC50 between 200 nM and 32 nM))	E (a pKi value of 7 or below (Ki of 100 nM or above))	A (a pKi value≥10 (Ki≤0.1 nM))	A (a value of 3 or above)	D (a pKi value between 7 and 8 (Ki between 100 nM and 10 nM))	–	–	–	–	–	–	–
C=CC(=O)N1CC(C)(Oc2cc(-c3ccc(O)cc3)cc3[nH]ncc23)C1 [Compound 5-12]	E (a pKi value of 7 or below (Ki of 100 nM or above))	B (a pIC50 value between 6.7 (included) and 7.5 (IC50 between 200 nM and 32 nM))	E (a pKi value of 7 or below (Ki of 100 nM or above))	B (a pKi value between 9 and 10 (Ki between 1 nM and 0.1 nM))	A (a value of 3 or above)	E (a pKi value of 7 or below (Ki of 100 nM or above))	–	–	–	–	–	–	–
C=CC(=O)N1CC(Oc2cc(-c3ccc(O)cc3)cc3[nH]ncc23)(C(F)F)C1 [Compound 5-14]	E (a pKi value of 7 or below (Ki of 100 nM or above))	A (a pIC50 value≥7.5 (IC50≤32 nM))	E (a pKi value of 7 or below (Ki of 100 nM or above))	A (a pKi value≥10 (Ki≤0.1 nM))	A (a value of 3 or above)	E (a pKi value of 7 or below (Ki of 100 nM or above))	–	–	–	–	–	–	–
CN(C)C/C=C/C(=O)N1CC(Oc2cc(-c3ccc(O)c(Cl)c3)cc3[nH]ncc23)(C(F)F)C1 [Compound 5-16]	E (a pKi value of 7 or below (Ki of 100 nM or above))	A (a pIC50 value≥7.5 (IC50≤32 nM))	E (a pKi value of 7 or below (Ki of 100 nM or above))	A (a pKi value≥10 (Ki≤0.1 nM))	A (a value of 3 or above)	6	–	–	–	–	–	–	–
CN(C)C/C=C/C(=O)N1CC(Oc2cc(-c3ccc(O)c(F)c3)cc3[nH]ncc23)(C(F)F)C1 [Compound 5-17]	E (a pKi value of 7 or below (Ki of 100 nM or above))	A (a pIC50 value≥7.5 (IC50≤32 nM))	E (a pKi value of 7 or below (Ki of 100 nM or above))	B (a pKi value between 9 and 10 (Ki between 1 nM and 0.1 nM))	A (a value of 3 or above)	E (a pKi value of 7 or below (Ki of 100 nM or above))	–	–	–	–	–	–	–
CN(C)C/C=C/C(=O)N1CC(C)(Oc2cc(-c3ccc(O)c(Cl)c3)cc3[nH]ncc23)C1 [Compound 5-18]	E (a pKi value of 7 or below (Ki of 100 nM or above))	–	E (a pKi value of 7 or below (Ki of 100 nM or above))	A (a pKi value≥10 (Ki≤0.1 nM))	–	E (a pKi value of 7 or below (Ki of 100 nM or above))	A (a pIC50 value≥7.5 (IC50≤32 nM))	A (a value of 3 or above)	–	–	–	–	–
CN(C)C/C=C/C(=O)N1CC(C)(Oc2cc(-c3ccc(O)c(F)c3)cc3[nH]ncc23)C1 [Compound 5-19]	E (a pKi value of 7 or below (Ki of 100 nM or above))	–	E (a pKi value of 7 or below (Ki of 100 nM or above))	B (a pKi value between 9 and 10 (Ki between 1 nM and 0.1 nM))	–	E (a pKi value of 7 or below (Ki of 100 nM or above))	B (a pIC50 value between 6.7 (included) and 7.5 (IC50 between 200 nM and 32 nM))	A (a value of 3 or above)	–	–	–	–	–
C=CC(=O)N1CC(Oc2cc(-c3ccc(O)c(Cl)c3)cc3[nH]ncc23)(C(F)F)C1 [Compound 5-21]	E (a pKi value of 7 or below (Ki of 100 nM or above))	–	E (a pKi value of 7 or below (Ki of 100 nM or above))	B (a pKi value between 9 and 10 (Ki between 1 nM and 0.1 nM))	–	E (a pKi value of 7 or below (Ki of 100 nM or above))	A (a pIC50 value≥7.5 (IC50≤32 nM))	A (a value of 3 or above)	–	–	–	–	–
C=CC(=O)N1CC(Oc2cc(-c3ccc(O)c(F)c3)cc3[nH]ncc23)(C(F)F)C1 [Compound 5-22]	E (a pKi value of 7 or below (Ki of 100 nM or above))	–	E (a pKi value of 7 or below (Ki of 100 nM or above))	B (a pKi value between 9 and 10 (Ki between 1 nM and 0.1 nM))	–	E (a pKi value of 7 or below (Ki of 100 nM or above))	B (a pIC50 value between 6.7 (included) and 7.5 (IC50 between 200 nM and 32 nM))	A (a value of 3 or above)	–	–	–	–	–
C=CC(=O)N1CC(C)(Oc2cc(-c3ccc(O)c(Cl)c3)cc3[nH]ncc23)C1 [Compound 5-23]	E (a pKi value of 7 or below (Ki of 100 nM or above))	–	E (a pKi value of 7 or below (Ki of 100 nM or above))	B (a pKi value between 9 and 10 (Ki between 1 nM and 0.1 nM))	–	E (a pKi value of 7 or below (Ki of 100 nM or above))	B (a pIC50 value between 6.7 (included) and 7.5 (IC50 between 200 nM and 32 nM))	A (a value of 3 or above)	–	–	–	–	–
C=CC(=O)N1CCC(Oc2cc(-c3ccc(O)cc3)cc3[nH]ncc23)CC1 [Compound 6-2]	–	–	–	–	–	–	–	B (a value of 2.3 to 3)	10 to 100 nM	< 31.6 nM	> 100 nM	< 0.1 nM	10 to 100 nM
